“Also recorded” adds a separate entry of the source.
Columns and labels:
3T3-L1 adipocytes = assay: Glucose uptake in 3T3-L1 adipocytes (3H-labelled 2-deoxyglucose); type: cell-based; conditions: for Glucose uptake, Mean, Compound + Insulin Group (Control Group = 1.000): 10 μM, 2 h incubation, with insulin, relative to control without insulin; for fold induction at 10 µM: Mus musculus, 3T3-L1, 2 h incubation, baseline (without insulin), relative to control, read-out: Glucose uptake, Mean, Compound Group (Control Group = 1.000)
Method: The effect of the compounds on baseline or insulin-stimulated glucose uptake was evaluated, using the model of glucose uptake in 3T3-L1 adipocytes.
Adipose tissue is the target of glucose metabolism in vivo. The sensitivity for insulin and availability of glucose in adipose tissues are tightly associated with the insulin resistance. The transportation of glucose into adipocytes is a rate-limiting step for the glucose metabolism, and also an important indicator for evaluating the sensitivity for insulin in adipose tissue. 3T3-L1 is a kind of pre-adipocyte, and can become adipocyte after differentiated completely. Therefore, 3T3-L1 is a desirable model for the glucose transport.
Pre-adipocyte, 3T3-L1 was induced to differentiate under certain conditions. After 3T3-L1 differentiated into adipocytes, the compounds of interest with different concentrations and DMSO (used as control) can be added and incubated with the adipocytes for different periods, then the glucose uptake could be determined. For evaluating the ability for a compound to stimulate glucose uptake, the baseline and insulin-induced glucose uptake were determined, and the increase in baseline and insulin-induced glucose uptake upon treatment of the compounds as compared with control group (with 0.1% DMSO) is calculated, based on the ^3H-labelled 2-deoxyglucose inside the cells.
3T3-L1 cells purchased from Karolinska Institute (Sweden) were cultured in DMEM medium containing 10% fetal calf serum at 37° C., under 5% CO2. The cells were passaged every 3-4 days. The cells were inoculated into 12-well plate. Upon confluence, culture medium containing 0.5 mM 3-isobutyl-1-methylxanthine, 0.25 μM dexamethasone and 5 μg/ml insulin was added and cultured for 3 days. Then, the culture medium was replaced by a medium containing 5 μg/ml insulin and further cultured for 3 days. The insulin was removed, and the cells had differentiated completely into mature adipocytes after 2 days which could be used to determine the glucose uptake.
23 compounds chosen by the inventors were added into the culture medium of adipocytes in a dose of 10 μM. After incubation for 2 h, the effect of the compounds on glucose uptake in 3T3-L1 cells was observed. Culture medium without compounds was used as negative control. The control group only supplemented with insulin and the experiment group supplemented with compounds plus insulin were also employed to observe the effect of the compounds on glucose uptake.

[1] = tested on: AMP-Activated Protein Kinase (AMPK); assay: Phosphorylation of AMPK in HepG2 cell (Western blot); type: cell-based, Human; conditions: HepG2, 50 uM, 5 minutes, P<0.01 or P<0.05
Method: (§1) Human hepatoma carcinoma cell strain (HepG2, purchased from the cell bank of Shanghai Institute of Cell Biology of Chinese Academy) was used. The Human hepatoma carcinoma cells were passaged by 0.1% pancreatin/0.02% EDTA digestion, and cultured in a incubator at 37° C. using MEM culture medium containing 10% FBS, under 5% CO2/95%.
(§2) HepG2 cells were cultured in 6-well plates for 48 hours until 70%-80% confluence. Serum starvation was started by changing medium with MEM containing 0.5% BSA. After starvation for 6 hours, cells were treated with the compounds (final concentration of 50 uM, containing 0.25% DMSO) for 5 minutes. The culture medium was discarded, and cells were harvested and washed for twice with pre-cooled PBS. The washing liquid was discarded, and any residual PBS was blotted dry. DMSO without heptacyclic compounds was used as control.
(§3) Extraction of total cellular protein: 150 μl/well homogenizing buffer (137 mM NaCl, 2.7 mM KCl, 1 mM MgCl2, 0.5 mM Na3VO4, 1% Triton X-100, 10% Glycerol, 20 mM Tris-HCl pH 7.8, 1 ug/ml Leupeptin, 0.2 mM PMSF, 10 mM NaF, 1 ug/ml Aprotinin, 1 mM EDTA, 1 mM DTT, 5 mM Sodium pyrophosphate, 1 mM Benzamidine) was added. Cells were collected into a 1.5 ml centrifuge tube using cell scraper. Cells were homogenized using sonicator (5 W of power) for 2 times (3 seconds per time), and shaken on a shaker for 1 hour. Supernatant (i.e., total cellular protein) was collected by centrifuging at 14000 rpm for 15 min at 4° C., and stored at −70° C. until use. After the protein concentration was determined by Bradford method, the supernatant was formulated as the loading sample with final concentration of 0.6 mg/ml. The whole preparation process was performed at 4° C.
(§4) Protein Electrophoresis: After being treated at 95° C. for 5 min, the loading sample was loaded (15 μg protein/lane). The protein was separated on 7.5% SDS-acrylamide gel for 1-2 hours under the voltage of 80-120 V.
(§5) Electrotransferring the protein and blocking the membrane: After electrophoresis was finished, the protein was transferred to PVDF membrane using semi-dry transferring slot based on 0.8 mA/cm^2 membrane area under the electric current of 80 mA for 2 hours. After that, the membrane was shaken for 2 hours with 7.5% skim milk/TTBS to block the membrane.
(§6) Antigen-antibody reaction: After the blocking process was finished, the membrane was incubated with primary antibody (antibody against phosphorylated ACC (P-ACC) and antibody against phosphorylated AMPK (P-AMPK), all purchased from Cell signaling (USA), with the working concentration of 1:1000) overnight at 4° C. The membrane was removed, and the primary antibody was recovered. The membrane was washed 5 times, each for 10 min in TTBS. The membrane was shaken for 2 hours with the secondary antibody (horseradish peroxidase-conjugated goat-anti-rabbit IgG antibody, purchased from Bio-rad (USA), with the working concentration of 1:5000) at room temperature. The secondary antibody was discarded. The membrane was washed 5 times, each for 10 min in TTBS in order to remove the unbound secondary antibody.
(§7) ECL exposure and development: Luminescent agents, ECL 1, 2, were mixed homogeneously, and incubated with the membrane for 3-5 min. The membrane was removed, wrapped in preservative film, and transferred into dark room for exposure. After exposure with X-film, the film was developed, washed, recorded and conserved.
(§8) Semi-quantitative analysis was performed through optical density scan using computer image analysis system. Grey level of the protein expression was calculated. The target grey level was divided by the grey level of internal standard, and a histogram was plotted, taking the normal group as 1 unit.

[2] = tested on: Acetyl CoA Carboxylase (ACC); assay: Phosphorylation of ACC in HepG2 cell (Western blot); type: cell-based, Human; conditions: HepG2, 50 uM, 5 minutes, P<0.01 or P<0.05
Method: as §1, §2, §3, §4, §5, §6, §7, §8

ob/ob mice = assay: Fasting blood glucose in ob/ob mice, several heptacyclic compounds, 8 days; type: in vivo; conditions: for Fasting blood glucose change in words: dosed continuously for 8 days, P<0.05
Method: Genetic spontaneous diabetes ob/ob mice were purchased from Jackson (USA), and maintained in a SPF facility (temperature: 22-24° C., humidity: 45-80%, illumination: 150-300 Lx, 12/12-hour light/dark cycle). Fasting blood glucose was determined for 3 days continuously when the mice were 7 weeks old. The mice were grouped into the treatment group and the control group (6 animals per group) according to the results determined. The treatment groups were administered orally with compound E9, G0 and F7 (psoromic acid) (100 mg/kg), and the control group was administered orally with a solution of 0.1% Tween 80 (blank control), once daily for 8 days. Fasting blood glucose in mice was determined at the end of experiment.

[3] = oral 100 mg/kg once daily, after 8 days treatment

Structure (SMILES)	Glucose uptake, Mean, Compound + Insulin Group (Control Group = 1.000) (3T3-L1 adipocytes)	fold induction at 10 µM (3T3-L1 adipocytes)	Level of phosphorylation for AMPK protein versus DMSO control [1]	Level of phosphorylation for ACC protein versus DMSO control [2]	Fasting Blood Glucose (ob/ob mice; before administration)	Fasting blood glucose change in words (ob/ob mice)	Fasting Blood Glucose (ob/ob mice; [3])
CCN(CC)C(=O)c1cc(OC)c(C)c2c1Oc1c(C=O)c(O)cc(C)c1C(=O)O2 [AB5, 4-Formyl-3-hydroxy-8-methoxy-1,9-dimethyl-11-oxo-11H-dibenzo[b,e][1,4]dioxepine-6-carboxylic acid diethylamide]	1.755	1.29	increased significantly	improved significantly			
COc1cc(C(=O)NCc2ccccc2)c2c(c1C)OC(=O)c1c(C)cc(O)c(C=NCc3ccccc3)c1O2 [AB6, 4-(Benzylimino-methyl)-3-hydroxy-8-methoxy-1,9-dimethyl-11-oxo-11H-dibenzo[b,e][1,4]dioxepine-6-carboxylic acid benzylamide]	1.432	1.14	increased significantly	improved significantly			
CCOC(=O)c1cc(OC)c(C)c2c1Oc1c(C=O)c(O)cc(C)c1C(=O)O2 [Compound A2, 4-Formyl-3-hydroxy-8-methoxy-1,9-dimethyl-11-oxo-11H-dibenzo[b,e][1,4]dioxepine-6-carboxylic acid ethyl ester]	3.138	1.37	significant up-regulation	improved significantly			
CCCOC(=O)c1cc(OC)c(C)c2c1Oc1c(C=O)c(O)cc(C)c1C(=O)O2 [Compound A4, 4-Formyl-3-hydroxy-8-methoxy-1,9-dimethyl-11-oxo-11H-dibenzo[b,e][1,4]dioxepine-6-carboxylic acid propyl ester]	3.449	1.18	significant up-regulation	improved significantly			
COc1cc(C(=O)O)c2c(c1C)OC(=O)c1c(C)cc(O)c(CNc3ccccc3)c1O2 [Compound B9, 3-Hydroxy-8-methoxy-1,9-dimethyl-11-oxo-4-phenylaminomethyl-11H-dibenzo[b,e][1,4]dioxepine-6-carboxylic acid]	2.824	1.16	increased significantly	improved significantly			
COc1cc(C(=O)O)c2c(c1C)OC(=O)c1c(C)cc(O)c(CNCCn3cccc3)c1O2 [Compound C1, 3-Hydroxy-8-methoxy-1,9-dimethyl-11-oxo-4-[(2-pyrrol-1-yl-ethylamino)-methyl]-11H-dibenzo[b,e][1,4]dioxepine-6-carboxylic acid]	4.059	1.21	increased significantly	improved significantly			
COc1cc(C(=O)O)c2c(c1C)OC(=O)c1c(C)cc(O)c(CNCCN3CCOCC3)c1O2 [Compound C7, 3-Hydroxy-8-methoxy-1,9-dimethyl-4-[(2-morpholin-4-yl-ethylamino)-methyl]-11-oxo-11H-dibenzo[b,e][1,4]dioxepine-6-carboxylic acid]	3.610	1.22	increased significantly	improved significantly			
COc1cc(C(=O)O)c2c(c1C)OC(=O)c1c(C)cc(O)c(CO)c1O2 [Compound E9, 3-Hydroxy-4-hydroxymethyl-8-methoxy-1,9-dimethyl-11-oxo-11H-dibenzo[b,e][1,4]dioxepine-6-carboxylic acid]	2.965	1.1	significant up-regulation; also recorded: increased significantly	improved significantly	11.99 ± 1.48 mM	reduced statistically significant	8.68 ± 1.32 mM
CCOCc1c(O)c(C(=O)O)c(C)c2c1OC(=O)c1c(C)cc(O)c(C=O)c1O2 [Compound G0, 9-Ethoxymethyl-4-formyl-3,8-dihydroxy-1,6-dimethyl-11-oxo-11H-dibenzo[b,e][1,4]dioxepine-7-carboxylic acid]	1.297	1.22	increased significantly	improved significantly	11.95 ± 1.49 mM	reduced statistically significant	8.07 ± 1.07 mM
CN(C)C(=N)N=C(N)N [Metformin, reference compound]					12.27 ± 2.69 mM		8.13 ± 2.76 mM
